Laboratory results from ChEMBL document CHEMBL3045847, “Efficacy evaluation of a neem (Azadirachta indica A. Juss) formulation against root-knot nematodes Meloidogyne incognita” (Crop Prot, 2009).
Active and inactive are the calls of the source. The rule behind the calls is not given here.

Key:
Meloidogyne incognita [1] = assay: Insecticidal activity against second stage juveniles of Meloidogyne incognita (root-knot nematode) assessed as increase in immotile at 12.8 to 51.2 ug a.i/ml in methanol after 24 to 96 hr; format: functional, organism-based
Meloidogyne incognita [2] = assay: Insecticidal activity against second stage juveniles of Meloidogyne incognita (root-knot nematode) assessed as motility at 0.2 to 3.2 ug a.i/ml in methanol after 24 to 96 hr; format: functional, organism-based
Meloidogyne incognita [3] = assay: Insecticidal activity against second stage juveniles of Meloidogyne incognita (root-knot nematode) assessed as increase in immotile at 51.2 ug a.i/ml in methanol after 48 to 96 hr; format: functional
[4] = Chemical stability of the compound after 4 days by HPLC analysis; format: physicochemical; conditions: 96 h
Meloidogyne incognita [5] = assay: Insecticidal activity against second stage juveniles of Meloidogyne incognita (root-knot nematode) assessed as decrease of female nematodes in tomato roots at 0.03 to 30.72 ug/g after 30 days by pot bioassay; format: functional, organism-based
Meloidogyne incognita [6] = assay: Insecticidal activity against second stage juveniles of Meloidogyne incognita (root-knot nematode) assessed as motility at 0.2 to 3.2 ug a.i/ml in water after 24 to 96 hr; format: functional, organism-based
Meloidogyne incognita [7] = assay: Insecticidal activity against second stage juveniles of Meloidogyne incognita (root-knot nematode) assessed as motility at 0.2 ug a.i/ml in water after 24 to 96 hr; format: functional, organism-based
Solanum lycopersicum [8] = assay: Phytotoxicity in Solanum lycopersicum (tomato) assessed as effect on shoot and root fresh weight at 0.03 to 30.72 ug/g after 24 hr; format: organism-based; conditions: in vivo
[9] = Chemical stability of the compound after 72 hr by HPLC analysis; format: physicochemical
Solanum lycopersicum [10] = assay: Toxicity in Solanum lycopersicum (tomato) assessed as effect on shoot and root fresh weight at 0.03 to 30.72 ug/g after 24 hr; format: organism-based; conditions: in vivo
Meloidogyne incognita [11] = assay: Insecticidal activity against second stage juveniles of Meloidogyne incognita (root-knot nematode) assessed as increase in immotile at 12.8 to 51.2 ug a.i/ml in water after 24 to 96 hr; format: functional
Solanum lycopersicum [12] = assay: Phytotoxicity in Solanum lycopersicum (tomato) assessed as effect on shoot and root fresh weight at 2 ug/g after 24 hr; format: organism-based; conditions: in vivo
Solanum lycopersicum [13] = assay: Toxicity in Solanum lycopersicum (tomato) assessed as effect on shoot and root fresh weight at 2 ug/g after 24 hr; format: organism-based; conditions: in vivo
Meloidogyne incognita [14] = assay: Insecticidal activity against second stage juveniles of Meloidogyne incognita (root-knot nematode) assessed as decrease of female nematodes in tomato roots at 2 ug/g after 30 days by pot bioassay; format: functional, organism-based

C/C=C(\C)C(=O)O[C@H]1C[C@@H](OC(C)=O)[C@@]2(C(=O)OC)CO[C@H]3[C@@H](O)[C@@](C)([C@]45O[C@@]4(C)[C@@H]4C[C@H]5O[C@@H]5OC=C[C@@]54O)[C@H]4[C@]1(CO[C@]4(O)C(=O)OC)[C@@H]32 (stereo in doubt; form 1)
Activity (Meloidogyne incognita [1]): Active
Activity (Meloidogyne incognita [2]): inactive

C/C=C(\C)C(=O)O[C@H]1C[C@@H](OC(C)=O)[C@@]2(C(=O)OC)CO[C@H]3[C@@H](O)[C@@](C)([C@]45O[C@@]4(C)[C@@H]4C[C@H]5O[C@@H]5OC=C[C@@]54O)[C@H]4[C@]1(CO[C@]4(O)C(=O)OC)[C@@H]32 (stereo in doubt; form 1) [AZADIRACHTIN A]
Activity (Meloidogyne incognita [3]): 11%
Activity [4]: 84%

C/C=C(\C)C(=O)O[C@H]1C[C@@H](OC(C)=O)[C@@]2(C(=O)OC)CO[C@H]3[C@@H](O)[C@@](C)([C@]45O[C@@]4(C)[C@@H]4C[C@H]5O[C@@H]5OC=C[C@@]54O)[C@H]4[C@]1(CO[C@]4(O)C(=O)OC)[C@@H]32 (stereo in doubt; form 2)
Activity (Meloidogyne incognita [5]): inactive
Activity (Meloidogyne incognita [6]): inactive
Activity (Meloidogyne incognita [7]): inactive

C/C=C(\C)C(=O)O[C@H]1C[C@@H](OC(C)=O)[C@@]2(C(=O)OC)CO[C@H]3[C@@H](O)[C@@](C)([C@]45O[C@@]4(C)[C@@H]4C[C@H]5O[C@@H]5OC=C[C@@]54O)[C@H]4[C@]1(CO[C@]4(O)C(=O)OC)[C@@H]32 (stereo in doubt; form 2) [AZADIRACHTIN A]
Activity (Solanum lycopersicum [8]): Non-toxic
Stability [9]: Stable
Activity (Solanum lycopersicum [10]): Non-toxic
Activity [4]: 88%
Activity (Meloidogyne incognita [11]): 21%

CCOP(=O)(SC(C)CC)N1CCSC1=O (stereo not given) [FOSTHIAZATE]
Activity (Solanum lycopersicum [12]): Non-toxic
Activity (Solanum lycopersicum [13]): Non-toxic
Activity (Meloidogyne incognita [14]): Active
